ChEMBL document CHEMBL1158471, “Flaviviral protease inhibitors identified by fragment-based library docking into a structure generated by molecular dynamics” (J Med Chem, 2009)
Where a SMILES comes first, the peptide text is derived from it. [ ]: non-standard residue; d: D form. The star is where a group is joined. Nle = CCCC[C@H](N)C(=O)O; Bz = O=C(c1ccccc1)*

What was measured:
Genome polyprotein [1] = target: T1, Genome polyprotein (West Nile virus, UniProt P06935); test: Inhibition of WNV NS2B-NS3 protease
Genome polyprotein [2] = target: T1, Genome polyprotein; test: Binding affinity to WNV NS2B-NS3 protease measured as change of 1H chemical shift of Thr52 and Glu101 by NMR spectroscopy
Genome polyprotein [3] = target: T1, Genome polyprotein; test: Inhibition of WNV NS2B-NS3 protease by enzymatic assay
Genome polyprotein [4] = target: T1, Genome polyprotein; test: Inhibition of WNV NS2B-NS3 protease by tryptophan fluorescence assay
Genome polyprotein [5] = target: T1, Genome polyprotein; test: Binding affinity to WNV NS2B(K96A)-NS3 protease measured as change of 15N chemical shift of Ser137 by NMR spectroscopy
Genome polyprotein [6] = target: T1, Genome polyprotein; test: Binding affinity to WNV NS2B(K96A)-NS3 protease measured as change of 15N chemical shift of Val100 by NMR spectroscopy
Genome polyprotein [7] = target: T1, Genome polyprotein; test: Binding affinity to WNV NS2B(K96A)-NS3 protease measured as change of 15N chemical shift of Ala36 by NMR spectroscopy
Genome polyprotein [8] = target: T1, Genome polyprotein; test: Binding affinity to WNV NS2B(K96A)-NS3 protease measured as change of 1H chemical shift of Glu101 by NMR spectroscopy

**Q.** With `Cc1ccc(C(NN=C(N)N)[PH](=O)O)cc1` (stereo not given) as the compound, how does the Ki (Genome polyprotein [1]) read?
**A.** Its Ki is 13 µM.

**Q.** With `NC(N)=N/N=C\c1ccc(/C=N\N=C(N)N)cc1` as the compound, how does the Ki (Genome polyprotein [1]) read?
**A.** The Ki was 35 µM.

**Q.** How did the Kd (Genome polyprotein [2]) turn out when `Cc1cc(CSC(=N)N)c(C)cc1CSC(=N)N` was run?
**A.** Its Kd is 40 µM.

**Q.** For `CC1CNC(c2ccc(Nc3nnc(Nc4ccc(C5=NC(C)CN5)cc4)c4ccccc34)cc2)=N1` (stereo not given), which IC50 (Genome polyprotein [1]) is on record?
**A.** Its IC50 is 24.5 µM.

**Q.** `N=C(N)Nc1ccc(C(=O)Oc2ccc([N+](=O)[O-])cc2)cc1` was tested. Which IC50 (Genome polyprotein [3]) did it give?
**A.** Its IC50 is 34.2 µM.

**Q.** And the Kd (Genome polyprotein [4])?
**A.** Its Kd is 16 µM.

**Q.** With `c1ccc2c(Nc3ccc4c(c3)CNCC4)nnc(Nc3ccc(C4=NCCN4)cc3)c2c1` as the compound, how does the IC50 (Genome polyprotein [1]) read?
**A.** Its IC50 is 5.2 µM.

**Q.** For `NCc1ccc(Nc2nnc(Nc3ccc(C4=NCCN4)cc3)c3ccccc23)cc1`, which IC50 (Genome polyprotein [1]) is on record?
**A.** The IC50 was 10.6 µM.

**Q.** Which IC50 (Genome polyprotein [1]) does the source give for `CCCC[C@H](NC(=O)c1ccccc1)C(=O)N[C@@H](CCCCN)C(=O)N[C@@H](CCCNC(=N)N)C(=O)N[C@H](C=O)CCCNC(=N)N` (Bz-[Nle]KRR-aldehyde) here?
**A.** Its IC50 is 4.1 µM.

**Q.** How did the Kd (Genome polyprotein [5]) turn out when `N=C(N)c1cccc(NC(=O)Nc2cccc(C(=N)N)c2)c1` [AMICARBALIDE] was run?
**A.** The Kd was 90 µM.

**Q.** And the IC50 (Genome polyprotein [3])?
**A.** The IC50 was 2.8 µM.

**Q.** What about the Kd (Genome polyprotein [6]) of the same compound?
**A.** Its Kd is 90 µM.

**Q.** And the Kd (Genome polyprotein [7])?
**A.** Its Kd is 90 µM.

**Q.** And the Kd (Genome polyprotein [8])?
**A.** The Kd was 70 µM.

**Q.** What about the Kd (Genome polyprotein [4]) of the same compound?
**A.** Its Kd is 15 µM.
